According to patent US8187821B2, “Compositions and methods for the modulation of PGRMC1” (University of Utah Research Foundation, priority 2008, dated 2012):

Key:
[1] = system: dap1Δ S. cerevisiae; assay: Amphotericin B sensitivity of dap1Δ yeast; format: cell-based; conditions: 37° C; data not shown
Experimental: PGRMC1 and its homologues have been implicated to be involved in a number of distinct biological processes. […] Additionally, dap1Δ S. cerevisiae appears to be resistant to the polyene antibiotic amphotericin B at 37° C. (data not shown). Amphotericin B functions in a similar manner as nystatin in binding to and depleting membrane ergosterol thereby killing the cell.

[2] = target: T1, His10-PGRMC1 (Homo sapiens, UniProt O00264); assay: Competition of cold competitors with [^3H] progesterone or [^3H] cholesterol for His10-PGRMC1 binding; conditions: for effect of cold competitor on binding of [^3H] cholesterol: competitor at ten-fold higher concentration; for effect of cold competitor on specific [^3H] progesterone binding: competitor in ten-fold excess
T1 construct: a product containing the full length coding region of PGMRC1 flanked by Nde1 and BamHI restriction sites; made in house; host or cells: E. coli BL21 (DE3) / BL21 codon plus (RIPL); purified bacterial membranes
Experimental: The standard 10 μL binding reaction contained 10 μp purified membranes (total protein) and 10 μM [^3H] progesterone or [^3H] cholesterol (3,000-5,000 cpm) in buffer A: 20% ethanol. Stock solutions (100 μM) of [^3H] cholesterol and [^3H] progesterone containing ˜4×10^4 cpm/μL, were prepared in 95% ethanol. Reactions were prepared in clear 2.0 mL microcentrifuge tubes on ice. To start the reaction, the microfuge tube was briefly mixed (vortex) and placed at 37° C. Following a 10 to 30 min incubation, the tubes were centrifuged in a microfuge (˜13,000 rpm) for 2 min. The supernatant was carefully removed and the pellet was washed with an additional 10 μL water. After a second round of centrifugation (2 min; 13,000 rpm), the resulting supernatant was combined with the first and the pellet was resuspended in 20 μL H2O, Scintillation fluid (700 μL Wallac Optiflour) was added to each fraction and the fractions were mixed extensively. The fractions were then counted in a multi-well scintillation counter (Wallac Microbeta Triluxmax, Waltham, Mass.) for 30 seconds each. Binding are reported as μ/moles of ligand bound per mg of membrane protein. His10-PGRMC1 (His10 disclosed as SEQ ID NO: 14)-specific binding is reported as the difference in binding between transformed and untransformed bacteria. Experimental deviations from the standard assay conditions are noted in individual figure legends.
To test whether progesterone and cholesterol compete for the same specific binding site, the direct binding of [^3H] progesterone or [^3H] cholesterol to His10-PGRMC1 (His10 disclosed as SEQ ID NO: 14) in the presence of various cold competitors was examined. In these experiments, the standard amount of [^3H] ligand was combined with a cold competitor at either 10 or 100-fold higher concentration and mixed well to ensure homogeneity. These stock ligand solutions were then used in the standard binding assay as described.
The ability of other putative ligands reported in the literature to compete with progesterone binding was examined. […] As a control, cold progesterone (P) was used as a competitor and it was observed that excess cold progesterone competes with [^3H] progesterone for His10-PGRMC1 (His10 disclosed as SEQ ID NO: 14) binding. Contrastingly, binding of [^3H] cholesterol to His10-PGRMC1 (His10 disclosed as SEQ ID NO: 14) was unaffected by the presence of progesterone, ergosterol, or heme at ten-fold higher concentrations (FIG. 9, cholesterol). It was not until competitor concentrations were 100-fold higher than ligand that a reduction of cholesterol binding was observed.

T1 sequence (O00264 whole entry): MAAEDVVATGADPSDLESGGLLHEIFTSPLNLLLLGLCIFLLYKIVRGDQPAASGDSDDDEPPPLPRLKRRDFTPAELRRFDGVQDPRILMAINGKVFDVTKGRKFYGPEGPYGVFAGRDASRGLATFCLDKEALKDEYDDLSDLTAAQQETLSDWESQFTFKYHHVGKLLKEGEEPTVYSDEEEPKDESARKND

Structure (SMILES) | sensitivity of dap1Δ strain to the antibiotic [1] | effect of cold competitor on binding of [^3H] cholesterol [2] | effect of cold competitor on specific [^3H] progesterone binding [2]
C[C@@H]1[C@H](O)[C@@H](C)/C=C/C=C/C=C/C=C/C=C/C=C/C=C/[C@H](O[C@@H]2O[C@H](C)[C@@H](O)[C@H](N)[C@@H]2O)C[C@@H]2O[C@](O)(C[C@@H](O)C[C@@H](O)[C@H](O)CC[C@@H](O)C[C@@H](O)CC(=O)O[C@H]1C)C[C@H](O)[C@H]2C(=O)O [amphotericin B] | resistant | – | –
CC(C)[C@@H](C)/C=C/[C@@H](C)[C@H]1CC[C@H]2C3=CC=C4C[C@@H](O)CC[C@]4(C)[C@H]3CC[C@]12C [ergosterol] | – | unaffected | reduced
C=CC1=C(C)c2cc3[n-]c(cc4[n-]c(cc5nc(cc1n2)C(C)=C5C=C)c(C)c4CCC(=O)O)c(CCC(=O)O)c3C.[Fe+2] [heme] | – | unaffected | reduced
